{
  "source": "paper PMC6070671",
  "about": "“Enhancement of Tumor Cell Death by Combining gef Gene Mediated Therapy and New 1,4-Benzoxazepin-2,6-Dichloropurine Derivatives in Breast Cancer Cells” (Frontiers in Pharmacology, 2018)",
  "key": {"[1]": {"tested_on": "MCF-7TG cancer cell line", "assay": "Sulforhodamine-B cytotoxicity assay, MCF-7TG (gef-expressing)", "type": "cell-based", "conditions": "Homo sapiens, 144 h; 6 days of treatment, gef gene induced with 1 μM Dex", "excerpt": "(§1) The breast cancer cell line MCF-7 was kindly provided by Dr. N. Olea of the Sánchez Mora Tumoural Biology Institute (University Hospital of Granada). The MCF-7TG cell line, a gef-expressing breast cancer cell line controlled by a mouse mammary tumor virus promoter and inducible by dexamethasone (Dex) was derivates from MCF-7 cells following methodology previously described by us ([Boulaiz et al., 2003b]). A selected MCF-7pMAMneo empty vector positive clone was also used. Non-tumoral breast cell line MCF-10A (ATCC: CRL-10317) was provided by the Cell Bank of the University of Granada (Granada, Spain). MCF-7 cells were cultured in a humidified atmosphere at 37°C with 5% CO2 and Dulbecco’s modified Eagle Medium (DMEM) (Gibco, Grand Island, NY, United States) with 10% heat-inactivated fetal bovine serum (FBS) (Gibco), 2.7% sodium bicarbonate, 2% L-glutamine, 1% Hepes buffer, 500 mg/L ampicillin and 40 mg/L gentamicin. MCF-7TG cells were grown in the same medium described above supplemented by 200 μg/ml geneticin G418 and 1μM Dex to induce gef gene expression. MCF-10A grown in DMEM/F12 medium with 5% horse serum (HS), 0.02 μg/ml epithelial growth factor (EGF), 0.5 μg/ml hydrocortisone, 100 ng/ml cholera toxin and 0.01 μg/ml insulin.\n(§2) To assess the effect of the different drugs on cell viability we used the sulforhodamine-B colorimetric assay. Cells were resuspended and seeded at a density of 5 × 10^3 cells/well onto 12-well plates kept growing for 24 h. After that, the compounds were added at different concentrations to the cells (0.5, 0.7, 1, 2, 5, and 10 μM) (Figure 1). After 72 h treatment, the medium was discarded and fresh medium and treatment was added. Cells were maintained for 3 days more with the treatment. Finally, they were processed as previously described ([Boulaiz et al., 2003b]) using a Titertek Multiscan apparatus (Flow Laboratories, Irvine, United Kingdom) at 492 nm. We used the cell number for each cell stock before each cell growth experiment to set the linearity of the sulforhodamine-B assay. To calculate the IC50 values we used semilogarithmic dose–response curves to make a linear interpolation. All of the experiments were performed in triplicate wells for each treatment and were repeated at least twice."}, "[2]": {"tested_on": "MCF-7TG cells", "assay": "In vitro cell proliferation assay over 15 days, MCF-7TG", "type": "cell-based, human", "conditions": "for growth inhibition: MCF-7TG (gef expressed), 15 days of treatment; for type of synergistic effect with the gef gene: combined with gef gene, proliferation over 15 days", "protocol": "(§3) MCF-7, MCF-7TG, and MCF-7pMAMneo cells were seeded at a density of 25 × 10^3/well into six-well plates using the culture conditions above mentioned. After 24 h, fresh medium was added to the cells and treated with IC50 and 2^∗IC50 of drugs cited in Table 1. No treatment was added to the control groups. To ensure the expression of the gef gene, MCF-7TG cells medium was always treated with 1 μM Dex. Cells in culture were always treated with or without drugs every 3 days when medium was changed up to the end of the assay. Four plates were used to run each treatment and time point (0, 3, 6, 9, 12, and 15 days of treatment). After the end of the treatment, we used sulforhodamine-B to stain the cells as previously described."}, "[3]": {"tested_on": "epithelial MCF-10A cell line", "assay": "Sulforhodamine-B cytotoxicity assay, MCF-10A", "type": "cell-based", "conditions": "Homo sapiens, non-tumoral breast cell line", "excerpt": "as §1, §2"}, "[4]": {"tested_on": "MCF-7 cell line", "assay": "Annexin V-FITC/PI apoptosis flow cytometry, MCF-7", "type": "cell-based, human", "conditions": "MCF-7, 72 h, IC50 of compound; control 8.15 ± 0.40%", "excerpt": "(§4) Apoptosis was detected using the apoptosis detection kit for annexin V-FITC (Pharmingen, San Diego, CA, United States) by flow cytometry according to [Boulaiz et al. (2003a)]. […] The results were representative of three independent experiments."}, "[5]": {"tested_on": "MCF-7TG cell line", "assay": "Annexin V-FITC/PI apoptosis flow cytometry, MCF-7TG", "type": "cell-based, human", "conditions": "72 h, IC50 of compound, control 0.74 ± 0.05%", "excerpt": "as §4"}, "[6]": {"tested_on": "MCF-7 cell line", "assay": "Flow cytometric analysis of the cell cycle, MCF-7", "type": "cell-based, human", "conditions": "MCF-7, 72 h, IC50 of compound; for S phase cells: control 17.41 ± 0.81%; for G2/M phase cells: control 17.56 ± 0.87%", "protocol": "(§5) Cells were grown at 70% confluence and treated with either DMSO alone or with different concentrations of the compounds corresponding to their IC50 values. Flow cytometry analysis was carried out after 72 h of treatment as described ([Marchal et al., 2004]). The results were representative of three independent experiments."}, "[7]": {"tested_on": "MCF-7 cells", "assay": "In vitro cell proliferation assay over 15 days, MCF-7", "type": "cell-based, human", "conditions": "MCF-7, 15 days of treatment", "protocol": "as §3"}, "[8]": {"tested_on": "MCF-7TG cell line", "assay": "Flow cytometric analysis of the cell cycle, MCF-7TG", "type": "cell-based, human", "conditions": "72 h, IC50 of compound", "protocol": "as §5"}, "[9]": {"tested_on": "MCF-7 cancer cell line", "assay": "Sulforhodamine-B cytotoxicity assay, MCF-7", "type": "cell-based", "conditions": "Homo sapiens, MCF7, 144 h, 6 days of treatment", "protocol": "as §2"}},
  "note": "Where “and” joins values, the source holds several entries; their conditions need not be identical. Equal entries are not always repeated.",
  "data": [
    {"smiles": "O=[N+]([O-])c1ccc(S(=O)(=O)N2CC(n3cnc4c(Cl)nc(Cl)nc43)OCc3ccccc32)cc1", "note": "(racemic) [Bozepinib, (R,S)-2,6-dichloro-9-[1-(p-nitrobenzenesulfonyl)-1,2,3,5-tetrahydro-4,1-benzoxazepine-3-yl]-9H-purine]", "values": [
      {"measurement": "IC50", "setting": "[1]", "value": "0.56 ± 0.01", "unit": "µM"},
      {"measurement": "growth inhibition", "setting": "[2]; IC50 of compound", "value": 81.42, "unit": "%"},
      {"measurement": "type of synergistic effect with the gef gene", "setting": "[2]", "value": "enhanced synergetic effect"},
      {"measurement": "IC50", "setting": "[3]", "value": "6.33 ± 0.03", "unit": "µM"},
      {"measurement": "cells in early apoptosis", "setting": "[4]", "value": "40.41 ± 2.02", "unit": "%"},
      {"measurement": "necrotic cells", "setting": "[5]", "value": "47.03 ± 1.07", "unit": "%"},
      {"measurement": "S phase cells", "setting": "[6]", "value": "12.29 ± 0.90", "unit": "%"},
      {"measurement": "G2/M phase cells", "setting": "[6]", "value": "22.98 ± 1.14", "unit": "%"},
      {"measurement": "growth inhibition", "setting": "[7]; 2*IC50 of compound", "value": 89.42, "unit": "%"},
      {"measurement": "growth inhibition", "setting": "[7]; IC50 of compound", "value": 76, "unit": "%"},
      {"measurement": "G0/G1 phase cells", "setting": "[8]", "value": "85.98 ± 4.29", "unit": "%"},
      {"measurement": "IC50", "setting": "[9]", "value": "1.23 ± 0.05", "unit": "µM"}
    ]},
    {"smiles": "O=S(=O)(c1ccccc1NO)N1CC(n2cnc3c(Cl)nc(Cl)nc32)OCc2ccccc21", "note": "(stereo not drawn) [FC-29d]", "values": [
      {"measurement": "IC50", "setting": "[1]", "value": "6.7 ± 0.01", "unit": "µM"},
      {"measurement": "IC50", "setting": "[3]", "value": "47.12 ± 0.05", "unit": "µM"},
      {"measurement": "IC50", "setting": "[9]", "value": "8.98 ± 0.3", "unit": "µM"}
    ]},
    {"smiles": "O=[N+]([O-])c1ccccc1S(=O)(=O)N1CC(n2cnc3c(Cl)nc(Cl)nc32)OCc2ccccc21", "note": "(stereo not drawn) [FC-26c]", "values": [
      {"measurement": "IC50", "setting": "[1]", "value": "0.65 ± 0.03", "unit": "µM"},
      {"measurement": "type of synergistic effect with the gef gene", "setting": "[2]", "value": "enhanced synergetic effect"},
      {"measurement": "IC50", "setting": "[3]", "value": "9.187 ± 0.08", "unit": "µM"},
      {"measurement": "cells in early apoptosis", "setting": "[4]", "value": "37.63 ± 1.88", "unit": "%"},
      {"measurement": "necrotic cells", "setting": "[5]", "value": "54.38 ± 2.3", "unit": "%"},
      {"measurement": "growth inhibition", "setting": "[7]; IC50 of compound", "value": 61.6, "unit": "%"},
      {"measurement": "G0/G1 phase cells", "setting": "[8]", "value": "81.25 ± 4.05", "unit": "%"},
      {"measurement": "IC50", "setting": "[9]", "value": "2.6 ± 0.1", "unit": "µM"}
    ]},
    {"smiles": "O=[N+]([O-])c1ccccc1S(=O)(=O)N1CC(n2cnc3nc(Cl)nc(Cl)c32)OCc2ccccc21", "note": "(stereo not drawn) [FC-30b2]", "values": [
      {"measurement": "IC50", "setting": "[1]", "value": "1.8 ± 0.08", "unit": "µM"},
      {"measurement": "growth inhibition", "setting": "[2]; IC50 of compound", "value": 81.14, "unit": "%"},
      {"measurement": "type of synergistic effect with the gef gene", "setting": "[2]", "value": "enhanced synergetic effect"},
      {"measurement": "IC50", "setting": "[3]", "value": "9.9 ± 0.08", "unit": "µM"},
      {"measurement": "cells in early apoptosis", "setting": "[4]", "value": "73.27 ± 3.66", "unit": "%"},
      {"measurement": "necrotic cells", "setting": "[5]", "value": "65.09 ± 2.47", "unit": "%"},
      {"measurement": "S phase cells", "setting": "[6]", "value": "0.63 ± 0.01", "unit": "%"},
      {"measurement": "G2/M phase cells", "setting": "[6]", "value": "33.22 ± 1.66", "unit": "%"},
      {"measurement": "growth inhibition", "setting": "[7]; 2*IC50 of compound", "value": 96, "unit": "%"},
      {"measurement": "growth inhibition", "setting": "[7]; IC50 of compound", "value": 82, "unit": "%"},
      {"measurement": "G0/G1 phase cells", "setting": "[8]", "value": "72.96 ± 3.50", "unit": "%"},
      {"measurement": "IC50", "setting": "[9]", "value": "7.75 ± 0.06", "unit": "µM"}
    ]},
    {"smiles": "COC(CN(c1ccccc1CO)S(=O)(=O)c1ccc([N+](=O)[O-])cc1)n1cnc2c(Cl)nc(Cl)nc21", "note": "(stereo not drawn) [ACG-812c-F1]", "values": [
      {"measurement": "IC50", "setting": "[1]", "value": "8.75 ± 0.18", "unit": "µM"},
      {"measurement": "IC50", "setting": "[3]", "value": "17.48 ± 0.12", "unit": "µM"},
      {"measurement": "IC50", "setting": "[9]", "value": "9.43 ± 0.07", "unit": "µM"}
    ]},
    {"smiles": "Nc1ccccc1S(=O)(=O)N1CC(n2cnc3c(Cl)nc(Cl)nc32)OCc2ccccc21", "note": "(stereo not drawn) [FC-29b]", "values": [
      {"measurement": "IC50", "setting": "[1]", "value": "1.9 ± 0.02", "unit": "µM"},
      {"measurement": "growth inhibition", "setting": "[2]; 2*IC50 of compound", "value": "70.48% and 70%"},
      {"measurement": "growth inhibition", "setting": "[2]; IC50 of compound", "value": 60, "unit": "%"},
      {"measurement": "type of synergistic effect with the gef gene", "setting": "[2]", "value": "additive synergetic effect"},
      {"measurement": "IC50", "setting": "[3]", "value": "4.04 ± 0.09", "unit": "µM"},
      {"measurement": "cells in early apoptosis", "setting": "[4]", "value": "57.62 ± 2.88", "unit": "%"},
      {"measurement": "necrotic cells", "setting": "[5]", "value": "51.92 ± 2.09", "unit": "%"},
      {"measurement": "S phase cells", "setting": "[6]", "value": "9.47 ± 0.30", "unit": "%"},
      {"measurement": "G2/M phase cells", "setting": "[6]", "value": "26.12 ± 1.20", "unit": "%"},
      {"measurement": "growth inhibition", "setting": "[7]; 2*IC50 of compound", "value": "70.48% and 70%"},
      {"measurement": "growth inhibition", "setting": "[7]; IC50 of compound", "value": 61.91, "unit": "%"},
      {"measurement": "G0/G1 phase cells", "setting": "[8]", "value": "80.07 ± 4.01", "unit": "%"},
      {"measurement": "IC50", "setting": "[9]", "value": "5.02 ± 0.12", "unit": "µM"}
    ]}
  ]
}
